These results are taken from patent US5230998A, “Method for the prescreening of drugs targeted to the V3 hypervariable loop of the HIV-1 envelope glycoprotein gp 120” (priority 1991, dated 1993).

Values after ≈ are worked out from the molar mass of the structure shown.

Test [1] has as its target T1, HIV-1 IIIB glycoprotein gp120 V3 hypervariable loop (Human immunodeficiency virus type 1 BH10, UniProt P03375).
T1 construct: b180 also mentions the V3 loop peptide
The test is described as follows: Inhibition of the reaction between HIV-1 IIIB gp120 and three distinct antibodies reacting with the V3 hypervariable loop (FIGS. 8-11). The class given is binding. As to conditions: 60 μg/ml, metal complexes versus uncomplexed. As to the method:
(§1) FIG. 8 is a bar graph depicting the inhibitory effect of chlorine6 (60 μg/ml) and metal chelates thereof on the reaction between HIV-1 IIIB glycoprotein gp120 and three distinct antibodies reacting with the V3 hypervariable loop of this glycoprotein. The antisera used were rabbit antiserum to a synthetic peptide corresponding to the V3 hypervariable loop of HIV-1 clone BH10, serum of a chimpanzee immunized with V3 hypervariable loop peptides of distinct HIV-1 isolates and monoclonal antibodies (McAb NEA 9305) raised against residues (315-329) of the V3 hypervariable loop of HIV-1 BH10 (Neurath et al (1990), Molec. Immunol., 27, 539-549).
FIG. 9 is a bar graph depicting the inhibitory effect of deuteroporphyrin IX,2-vinyl,4-hydroxymethyl (60 μg/ml) and metal chelates thereof on the reaction between HIV-1 IIIB glycoprotein gp120 and three distinct antibodies reacting with the V3 hypervarible loop of this glycoprotein. The antisera used were rabbit antiserum to a synthetic peptide corresponding to the V3 hypervariable loop of HIV-1 clone BH10, serum of a chimpanzee immunized with V3 hypervariable loop peptides of distinct HIV-1 isolates and monoclonal antibodies (McAb NEA 9305) raised against a synthetic peptide corresponding to residues (315-329) of the V3 hypervariable loop of HIV-1 BH10 (Neurath et al (1990), Molec. Immunol 27, 539-549).
as §1, with “FIG. 10” for “FIG. 8”, “of meso-tetra (4-carboxyphenyl)porphine” for “of chlorine6”, “against a synthetic peptide corresponding to” for “against”, “HIV-1 BH10.” for “HIV-1 BH10”
as §1, with “FIG. 11” for “FIG. 8”, “of uroporphyrin III” for “of chlorine6”, “against a synthetic peptide corresponding to” for “against”, “et al,” for “et al”, “Molec. lmmunol.,” for “Molec. Immunol.,”, “27, 539-549)” for “27, 539-549).”
Monoclonal antibodies (McAbs) recognizing the V3 hypervariable loop of HIV-1 BH 10 (McAb 9305 from DuPont, Wilmington, Del.) and an antiserum from a chimpanzee immunized with a mixture of V3 hypervariable loop peptides from 21 distinct HIV1 isolates (Girard, M., Kieny, M-P., Pinter, A., Barre-Sinoussi, F., Nara, P., Kolbe, H., Kusumi, K., Chaput, A., Reinhart, T., Muchmore, E, Ronco, J., Kaczorek, M., Gomard, E, Gluckman, JC., Fultz, P. N. (1991), "Immunization of Chimpanzees Confers Protection Against Challenge with Human Immunodeficiency Virus", Proc. Natl. Acad. Sci. USA, 88, 542-546) were also used for studies on the inhibitory affect of ATA on the reaction between these antibodies and gp120, using ELISA tests. These tests were carried out similarly as RIA, except that sodium merthiolate (1 mg/ml) was added to the buffers instead of NaN3, and goat antimouse IgG antibodies (Boehringer Mannheim Biochemicals, Indianapolis, Ind.) and goat anti-human IgG antibodies (Sigma, St. Louis, Mo.), respectively, each linked to horseradish peroxidase were used as second antibodies at final dilutions of 1:1,000 in phosphate-buffered saline (PBS) containing 10% goat serum and 0.1% Tween 20. […]

The target in test [2] is T2, HIV-1 gp120 V3 hypervariable loop (Human immunodeficiency virus type 1 group M subtype B, UniProt P03375). As to inhibitory activity: key: Chemicals with inhibitory activity are indicated by +.
T2 construct: Polystyrene plates coated with recombinant gp120 and gp160, respectively; purchased American Bio-Technologies, Inc., Cambridge, Mass; host or cells: baculovirus expression system
Description: biochemical. In kind it is binding. On the procedure: Wells of 96 well polystyrene plates (Immulon 2, Dynatech Laboratories, Inc., Chantilly, Va.) were coated with synthetic peptides (200 μl; 20μg/ml in 0.1 M Tris-HCl, pH 8.8) overnight at 20° C. The peptides were from the sequence of HIV-1, clone BH 10 envelope glycoproteins gp120 and gp41 (Neurath, A. R., Strick, N., and Lee, E. Y. S. (1990), "B-cell Epitope Mapping of Human Immunodeficiency virus (HIV-1) Envelope Glycoprotein with Long (19 to 36-residue) Synthetic Peptides", J. Gen. Virol., 71., 85-95) and from V3 hypervariable loops of 21 distinct HIV-1 isolates (clones) Neurath, A. R., and Strick, N., (1990), "Confronting the Hypervariability of an Immunodominant Epitope Eliciting Virus Neutralizing Antibodies from the Envelope Glycoprotein of the Human Immunodeficiency Virus Type 1 (HIV-1)", Molec. Immunol., 27, 539-549. The latter peptides corresponded to full-length V3 loops generated by disulfide bonds between N- and C- terminal cysteine residues. After washing with 0.14 M NaCl, 0.01 M Tris, 0.02% NaN3 (TS), the wells were postcoated with a mixture of bovine serum albumin (BSA) and gelatine (10 and 2.5 mg/ml, respectively) in TS. BSA was omitted from the postcoating solution for RIA tests in which antibodies to ATA were used. Polystyrene plates coated with recombinant gp120 and gp160, respectively, (500 ng/well; from American Bio-Technologies, Inc., Cambridge, Mass. and MicroGeneSys, Inc., West Haven, Conn., respectively) were also used for RIA and ELISA tests.
To define sites on gp120/gp41 reacting with ATA, the inhibitory effect of this compound was studied by RIA tests using gp120- and gp160-coated wells, respectively, and antisera (final dilutions 1:150) against synthetic peptides from the entire sequence of gp120/gp41 of HIV-1 BH 10. The preparation and biological properties of these antisera were described elsewhere (Neurath et al., (1990), J. Gen. Virol., 71, 85-95). Each of the antisera was diluted in a mixture of fetal bovine serum and goat serum (9:1) containing 0.1% Tween 20, adjusted to pH 8. ATA (final concentration 50 μg/ml) was added in one set of assays, but was omitted from a parallel set. After incubation overnight at 25° C., the plates were washed with TS. Attached rabbit IgG was detected using ^125 I-labeled anti-rabbit IgG, as described before (Neurath et al., 1990, J. Gen. Virol., 71, 85-95). Similarly, the inhibitory effect of ATA on the reaction of peptides derived from gp120/gp41 and of peptides derived from V3 hypervariable loops from gp120 of distinct HIV-1 isolates with the respective homologous anti-peptide antisera was studied. In the latter case, antisera were diluted 1:1,000 for the assays.
The inhibitory effect of ATA and of other compounds on the reaction between antibodies with predetermined specificity and gp120 (or synthetic peptides derived from it) was determined from the formula: [formula] An analogous formula was used to calculate the percentage of inhibition from optical density readings resulting from ELISA tests.
Chemicals other than ATA were screened for inhibitory activity essentially as described above. […] Chemicals with inhibitory activity established by the respective immunoassays were screened further for antiviral activity.
Commercially available ATA is a mixture of monomers and polymers of distinct molecular masses (Gonzalez et al., (1979) Biochem. Biophys. Acta, 562, 534-545); Cushman et al., (1991), J. Chem., 34, 329-337). The monomers [molecular mass (M.W.)=422.4 daltons] were separated from the polymers. ATA (20 mg/ml in the form of free acid neutralized with 0.4 M NaOH) was dialyzed against H2 O in a dialysis membrane with a molecular mass cutoff of 500 daltons.

The subject of another test is HIV-1. Description: Antiviral activity: inhibition of P24 production in MT-2 cells. The class given is cell-based, HIV-1 IIIB. Details: inhibition: dose or concentration left out as unconfirmed. As to conditions: Human immunodeficiency virus 1, MT2, Table 1. On the procedure:
All chemicals were tested at serial two-fold dilutions (1.25-80 μg/ml, prepared from a stock solution containing 10 mg/ml in dimethylsulfoxide). The chemicals were obtained from Aldrich, Milwaukee, Wis. or were synthesized. Their inhibitory activity was determined by two distinct methods, based on inhibition of synthesis of core protein P24 and on protection by the chemicals of cells against the cytopathic effect of HIV-1 (colorimetric method) respectively.
The chemicals were serially diluted in RPMI 1640 medium without phenol red (GIBCO, Grand Island, N.Y.) containing 10% fetal calf serum (FCS). Aliquots of the diluted solutions were added to wells of 96 well plates and mixed with an equal volume of diluted HIV-1 [multiplicity of infection (MOI) =0.0045]. After incubation for 1 hour at 37° C., 25 μl of polybrene (1 μg/ml) treated MT-2 cells (Harada, S., Koyanagi, Y., Yamamoto, N., (1985), "Infection of HTLV-III/LAV in HTLV-I-carrying Cells MT-2 and MT-4 and Application in a Plaque Assay", Science, 229, 563-566), (5,000 cells/well) were added. The mixture was incubated for 1 hour at 37° C. and the volume was adjusted with RPMI 1640 medium with 10% FCS to 200 μl. On the fourth day after incubation at 37° C., 100 μl of culture supernatants were collected from each well and equal volumes of fresh medium were added to the wells. The supernatants were assayed for P24 using a kit from Coulter Immunology (Hialeah, Fla.). On the sixth day, an indicator XTT tetrazolium dye (1 mg/ml; 50 μl/well; PolySciences, Inc., Warrington, Penna.) was added to the cells. After 4 hours, intracellular formazan was determined colorimetrically at 450 nm.
^c Chemicals with inhibitory activity in ELISA (RIA) tests were teste
^d EC50 = concentration at which the production of P24 was […]

The subject of test [3] is gp120 expressed on the surface of HIV-1-infected cells. As to conditions: literature; cited from earlier work.

Regarding `O=C(O)c1ccc(-c2c3nc(c(-c4ccc(C(=O)O)cc4)c4ccc([n-]4)c(-c4ccc(C(=O)O)cc4)c4nc(c(-c5ccc(C(=O)O)cc5)c5ccc2[n-]5)C=C4)C=C3)cc1.[Co+2]`, in test [1], the “inhibitory activity on the interaction between the V3 hypervariable loop of HIV-1-IIIB and antisera” value (from here on “inhibitory activity … of HIV-1-IIIB and antisera”) was “drastically reduced inhibitory activity”. With `O=C(O)c1ccc(-c2c3nc(c(-c4ccc(C(=O)O)cc4)c4ccc([n-]4)c(-c4ccc(C(=O)O)cc4)c4nc(c(-c5ccc(C(=O)O)cc5)c5ccc2[n-]5)C=C4)C=C3)cc1.[Cr+2]`, the “inhibitory activity … of HIV-1-IIIB and antisera” value in test [1] is listed as “drastically reduced inhibitory activity”. With `O=C(O)c1ccc(-c2c3nc(c(-c4ccc(C(=O)O)cc4)c4ccc([n-]4)c(-c4ccc(C(=O)O)cc4)c4nc(c(-c5ccc(C(=O)O)cc5)c5ccc2[n-]5)C=C4)C=C3)cc1.[Cu+2]`, the “inhibitory activity … of HIV-1-IIIB and antisera” value in test [1] is listed as “drastically reduced inhibitory activity”. Turning to `C=Cc1c(C)c2cc3nc(cc4[n-]c(cc5nc(cc1[n-]2)C(C)=C5CO)c(C)c4CCC(=O)O)C(CCC(=O)O)=C3C.[Fe+2]`, the “inhibitory activity … of HIV-1-IIIB and antisera” value in test [1] is on record as “substantially lower than that of the uncomplexed substance or of its Zn derivative”. As for `O=C(O)c1ccc(-c2c3nc(c(-c4ccc(C(=O)O)cc4)c4ccc([n-]4)c(-c4ccc(C(=O)O)cc4)c4nc(c(-c5ccc(C(=O)O)cc5)c5ccc2[n-]5)C=C4)C=C3)cc1.[Fe+2]`, in test [1], the “inhibitory activity … of HIV-1-IIIB and antisera” value was “drastically reduced inhibitory activity”. As to `O=C(O)c1ccc(-c2c3nc(c(-c4ccc(C(=O)O)cc4)c4ccc([n-]4)c(-c4ccc(C(=O)O)cc4)c4nc(c(-c5ccc(C(=O)O)cc5)c5ccc2[n-]5)C=C4)C=C3)cc1.[Mn+2]`, the “inhibitory activity … of HIV-1-IIIB and antisera” value in test [1] was “drastically reduced inhibitory activity”. For `O=C(O)c1ccc(-c2c3nc(c(-c4ccc(C(=O)O)cc4)c4ccc([n-]4)c(-c4ccc(C(=O)O)cc4)c4nc(c(-c5ccc(C(=O)O)cc5)c5ccc2[n-]5)C=C4)C=C3)cc1.[Ni+2]`, the “inhibitory activity … of HIV-1-IIIB and antisera” value in test [1] is on record as “drastically reduced inhibitory activity”. For `O=C(O)CCC1=C(CC(=O)O)c2cc3[nH]c(cc4nc(cc5[nH]c(cc1n2)c(CCC(=O)O)c5CC(=O)O)C(CC(=O)O)=C4CCC(=O)O)c(CC(=O)O)c3CCC(=O)O` [compound 164], in test [2] (Table 1, reaction between HIV-1 gp120 and anti-V3 loop antibodies), the Inhibitory activity entry is “+”. For the same compound, the inhibition at 50 µg/mL in test [2] (read-out: percentage of inhibition) is 45%. For the same compound, the EC50 in the test with HIV-1 (read-out: EC50 (concentration at which the production of P24 was reduced to 50% of that detected in control cultures)) worked out at 2.3 µg/mL (≈ 2.77 µM). For the same compound, the inhibition in the test with HIV-1 (read-out: percentage of inhibition of P24 nucleoprotein production) turned out to be 100%.

Regarding heparin, the “inhibition of the reaction of gp120 on infected cells with monoclonal anti-gp120 antibodies” value in test [3] is “inhibit the reaction of gp120 expressed on the surface of HIV-1-infected cells with monoclonal anti-gp120 antibodies”. Regarding pentosan polysulfate, the “inhibition of the reaction of gp120 on infected cells with monoclonal anti-gp120 antibodies” value in test [3] is “inhibit the reaction of gp120 expressed on the surface of HIV-1-infected cells with monoclonal anti-gp120 antibodies”.
